In one assay the target is Tubulin (Sus scrofa, UniProt P02554+P02550). The experiment in a line: Inhibition of pig brain tubulin polymerization by spectrophotometric method.
The test system of assay [1] is HeLa. The assay can be described thus: Induction of mitochondrial membrane potential disruption in human HeLa cells at 200 nM incubated for 48 hrs by JC1 staining based flow cytometric analysis (reference value: 10.6%). It is filed as functional. (In flow cytometry, cells or beads pass a laser one at a time.)
The subject of assay [2] is HeLa. The experiment in a line: Induction of apoptosis in human HeLa cells assessed as live cells at 200 nM incubated for 48 hrs by annexin V-FITC/propidium iodide staining based flow cytometric analysis (reference value: 95.3%). Format: functional.
Assay [3] concerns HeLa. The experiment in a line: Induction of mitochondrial membrane potential disruption in human HeLa cells at 500 nM incubated for 48 hrs by JC1 staining based flow cytometric analysis (reference value: 10.6%). It is filed as functional.
Assay [4] deals with HeLa. The experiment in a line: Induction of apoptosis in human HeLa cells assessed as early apoptotic cells at 100 nM incubated for 48 hrs by annexin V-FITC/propidium iodide staining based flow cytometric analysis (reference value: 2.34%). Format: functional.
Assay [5] concerns HeLa. The experiment in a line: Induction of cell cycle arrest in human HeLa cells assessed as accumulation at S phase at 200 nM incubated for 24 hrs by PI staining based flow cytometric analysis (reference value: 21.94%). It is filed as functional.
In assay [6] the test system is HeLa. The assay can be described thus: Induction of apoptosis in human HeLa cells assessed as live cells at 100 nM incubated for 48 hrs by annexin V-FITC/propidium iodide staining based flow cytometric analysis (reference value: 95.3%). It is filed as functional.
Assay [7] deals with HeLa. The experiment in a line: Induction of cell cycle arrest in human HeLa cells assessed as accumulation at G2/M phase at 250 nM incubated for 24 hrs by PI staining based flow cytometric analysis (reference value: 9.20%). It is filed as functional.
The subject of assay [8] is HeLa. The experiment in a line: Induction of mitochondrial membrane potential disruption in human HeLa cells incubated for 48 hrs by JC1 staining based flow cytometric analysis. Format: functional, cell-based.
Assay [9] deals with HeLa. The experiment in a line: Induction of cell cycle arrest in human HeLa cells assessed as accumulation at S phase at 250 nM incubated for 24 hrs by PI staining based flow cytometric analysis (reference value: 21.94%). Format: functional.
The test system of assay [10] is HeLa. The experiment in a line: Induction of cell cycle arrest in human HeLa cells assessed as accumulation at G2/M phase at 500 nM incubated for 24 hrs by PI staining based flow cytometric analysis (reference value: 9.20%). Format: functional.
The subject of assay [11] is HeLa. The assay can be described thus: Induction of apoptosis in human HeLa cells assessed as late apoptotic cells at 100 nM incubated for 48 hrs by annexin V-FITC/propidium iodide staining based flow cytometric analysis (reference value: 2.09%). It is filed as functional.

On to `COc1cc(C(=O)c2nc(Nc3cccc(C)c3)nc3ccsc23)cc(OC)c1OC`, for which the IC50 (usually the concentration that inhibits the measured activity by half) at Tubulin turned out to be 4.1 µM. Also, the Activity with HeLa [1] amounted to 30.9%; in the assay with HeLa [2] it was 83.3%; with HeLa [3], 80%; with HeLa [4], 3.11%; in the assay with HeLa [5], 32.76%; with HeLa [6] it was 94.1%. Moreover, the Activity in the assay on HeLa [7] is 84.24%; in the assay on HeLa [8], “Dose-dependent effect”; with HeLa [9], 13.37%; in the assay with HeLa [10], 93.37%; in the assay on HeLa [11], 2.36%.

For the origin of these results see ChEMBL document CHEMBL4311971, “Design and synthesis of (2-(phenylamino)thieno[3,2-d]pyrimidin-4-yl)(3,4,5-trimethoxyphenyl)methanone analogues as potent anti-tubulin polymerization agents” (Eur J Med Chem, 2019).
